From US20110178110A1, “Genotype and Expression Analysis for Use in Predicting Outcome and Therapy Selection” (University of Southern California, priority 2008, published 2011)

Assays:
stage II colon cancer = assay: Tumor recurrence in stage II colon cancer patients treated with 5-FU based adjuvant chemotherapy; assay type: in vivo, human
Method: Methods: Blood specimens from 107 patients (median age of 60 years; range: 22-86) were obtained at the University of Southern California medical facilities. All patients were diagnosed with high-risk, lymph node negative, stage II colon cancer and were uniformly treated with 5-FU based adjuvant chemotherapy. The median follow-up was 4.8 years (range: 0.3-16.8). […] Genomic DNA was extracted from peripheral blood and genotypes were determined using PCR-RFLP.

[1] = tested on: metastatic adenocarcinoma of the colon or rectum; conditions: individuals with serum LDH more than 1.5 times the upper limit of normal; interim data; cited from earlier work

| SMILES | Probability ± SE of 3-year recurrence (stage II colon cancer) | Median time to recurrence (TTR) (95% CI) (stage II colon cancer; by adjuvant therapy) | clinical benefit when PTK/ZK was added to FOLFOX4, compared to FOLFOX4 plus placebo [1] |
| --- | --- | --- | --- |
| O=c1[nH]cc(F)c(=O)[nH]1 [5-FU, Fluorouracil] | 0.29 ± 0.06 | 9.4 (4.8, 16.8+) yrs |  |
| Clc1ccc(Nc2nnc(Cc3ccncc3)c3ccccc23)cc1.O=C(O)CCC(=O)O [PTK/ZK, 1-[4-Chloroanilino]-4-[4-pyridylmethyl]phthalazine Succinate] |  |  | greater clinical benefit |
